From patent US20080182835A1 (priority 2006, published 2008)

Key:
[1] = system: BHK cells infected with Sindbis virus; assay: Cell viability of Sindbis-infected BHK cells, Trypan blue dye-exclusion and light microscopy; type: cell-based, hamster; conditions: for cell viability (viable cell count): 48 hour infection
Description: Additional cell viability studies were done using a combined assessment of cellular morphology via light microscopy, or visual inspection of cell viability, and plasma membrane integrity measurements using a Trypan blue dye-exclusion assay. Specifically, BHK cells were seeded to the wells of a 96-well plate (2×10^4 cells/well) and cultured overnight in complete growth medium. […] After a 48 hour infection period, the cells were resuspended and an aliquot of cells (10 μL) was mixed with 90 μL 0.2% trypan blue. The number of viable cells was determined by counting with a hemocytometer.
Also, a corresponding set of wells was identically prepared exclusively for observation using Trypan blue staining and light microscopy. FIGS. 6A-6H are light microscopy images showing cell morphology at various concentrations of Co(NH3)6 at 48 hours post infection following 6 hours of pretreatment with Co(NH3)6. […] Viable cells remain attached to the tissue culture substrate and have an elongated, epithelial cell-like appearance. The arrows in FIGS. 6E-6G indicate examples of cells that have retained an elongated and adherent morphology. Non-viable cells are detached from the tissue culture substrate and are rounded. FIGS. 6B-6H illustrate that pronounced cell death is apparent in the presence of no Co(NH3)6 (FIG. 6B) and at lower concentrations of Co(NH3)6 (FIGS. 6C and 6D).

[2] = system: SV-infected BHK cells; assay: Flow cytometry propidium iodide viability of Sindbis-infected BHK cells; type: cell-based, hamster

Substance: Co(NH3)6
- cell viability (viable cell count) ([1]; Sindbis-infected, 6 hours pretreatment, at 1.2 mM): 80%
- cell viability (viable cell count) ([1]; Sindbis-infected, at 0.15 mM): further decreased viability
- cell morphology, viable cells by light microscopy ([1]; Sindbis-infected, 48 hours post infection, at 0.6 and 1.2 mM): viable cells appeared more pronounced
- concentration providing optimal protection against Sindbis virus ([1]; light microscopy and cell viability count): 1.2 mM
- percentage of PI-positive (non-viable) cells ([2]; at 0.15 mM, relative to untreated infected cells): significantly lower percentage
- effect of timing of treatment on survivability of the cells ([2]; pretreatment, co-infection, 2, 4 and 24 hours post-infection): very little effect
